From ChEMBL document CHEMBL1773000, “Synthesis and biological activity of 22-deoxo-23-oxa analogues of saponin OSW-1” (J Med Chem, 2011)

Assays:
[1] = tested on: MCF7; test: Cytotoxicity against human MCF7 cells assessed as viable cells after 72 hrs by calcein AM assay; type: functional, cell-based; conditions: MCF7, 72 h
[2] = tested on: BJ; test: Cytotoxicity against human BJ cells assessed as viable cells after 72 hrs by calcein AM assay; type: cell-based
[3] = tested on: HOS; test: Cytotoxicity against human HOS cells assessed as viable cells after 72 hrs by calcein AM assay; type: functional, cell-based
[4] = Cytotoxicity against human T98 cells assessed as viable cells after 72 hrs by calcein AM assay; type: functional, cell-based; conditions: T98, 72 h
[5] = tested on: G-361; test: Cytotoxicity against human G361 cells assessed as viable cells after 72 hrs by calcein AM assay; type: functional, cell-based; conditions: G-361, 72 h
[6] = tested on: HCT-116; test: Cytotoxicity against human HCT116 assessed as viable cells after 72 hrs by calcein AM assay; type: functional, cell-based; conditions: HCT-116, 72 h
[7] = tested on: A549; test: Cytotoxicity against human A549 cells assessed as viable cells after 72 hrs by calcein AM assay; type: functional, cell-based; conditions: A549, 72 h
[8] = tested on: CCRF-CEM; test: Cytotoxicity against human CEM cells assessed as viable cells after 72 hrs by calcein AM assay; type: functional, cell-based
[9] = tested on: HeLa; test: Cytotoxicity against human HeLa cells assessed as viable cells after 72 hrs by calcein AM assay; type: functional, cell-based

Work on CCCCCCCCC(=O)OC[C@@H](C)[C@@]1(O)[C@@H](O[C@@H]2OC[C@H](O)[C@H](O[C@@H]3OC[C@@H](O)[C@H](O)[C@H]3OC(=O)c3ccc(OC)cc3)[C@H]2OC(C)=O)C[C@H]2[C@@H]3CC=C4C[C@@H](O)CC[C@]4(C)[C@H]3CC[C@@]21C yielded an IC50 [1] of 26 nM, an IC50 [2] of 7 nM and an IC50 [3] of 2800 nM. It also gave an IC50 [4] of 11 nM, an IC50 [5] of 15 nM and an IC50 [6] of 4900 nM. It also gave an IC50 [7] of 590 nM, an IC50 [8] of 7.2 nM and an IC50 [9] of 47 nM.

COc1ccc(C(=O)O[C@H]2[C@H](O[C@@H]3[C@@H](OC(C)=O)[C@H](O[C@H]4C[C@H]5[C@@H]6CC=C7C[C@@H](O)CC[C@]7(C)[C@H]6CC[C@]5(C)[C@@]4(O)[C@H](C)COCc4ccccc4)OC[C@@H]3O)OC[C@@H](O)[C@@H]2O)cc1 gave an IC50 [1] of 600 nM, an IC50 [2] of 300 nM and an IC50 [5] of 750 nM. The IC50 [7] was 100 nM, the IC50 [8] was 20 nM and the IC50 [9] was 200 nM.

Molecule CCCCC(=O)OC[C@@H](C)[C@@]1(O)[C@@H](O[C@@H]2OC[C@H](O)[C@H](O[C@@H]3OC[C@@H](O)[C@H](O)[C@H]3OC(=O)c3ccc(OC)cc3)[C@H]2OC(C)=O)C[C@H]2[C@@H]3CC=C4C[C@@H](O)CC[C@]4(C)[C@H]3CC[C@@]21C has an IC50 [1] of 500 nM, an IC50 [2] of 500 nM and an IC50 [5] of 390 nM. For the same molecule, the IC50 [7] was 160 nM, the IC50 [8] was 60 nM and the IC50 [9] was 170 nM.

Molecule CCCCCCC(=O)OC[C@@H](C)[C@@]1(O)[C@@H](O[C@@H]2OC[C@H](O)[C@H](O[C@@H]3OC[C@@H](O)[C@H](O)[C@H]3OC(=O)c3ccc(OC)cc3)[C@H]2OC(C)=O)C[C@H]2[C@@H]3CC=C4C[C@@H](O)CC[C@]4(C)[C@H]3CC[C@@]21C has an IC50 [1] of 400 nM, an IC50 [2] of 600 nM and an IC50 [5] of 1280 nM. For the same molecule, the IC50 [7] was 20 nM, the IC50 [8] was 10 nM and the IC50 [9] was 30 nM.

Molecule COc1ccc(C(=O)O[C@H]2[C@H](O[C@@H]3[C@@H](OC(C)=O)[C@H](O[C@H]4C[C@H]5[C@@H]6CC=C7C[C@@H](O)CC[C@]7(C)[C@H]6CC[C@]5(C)[C@@]4(O)[C@H](C)COC(=O)c4ccccc4)OC[C@@H]3O)OC[C@@H](O)[C@@H]2O)cc1 has an IC50 [1] of 700 nM, an IC50 [2] of 100 nM and an IC50 [5] of 1660 nM. The IC50 [7] was 170 nM and the IC50 [8] was 70 nM.

In the case of CCCCCCCCCCCCCCCCCC(=O)OC[C@@H](C)[C@@]1(O)[C@@H](O[C@@H]2OC[C@H](O)[C@H](O[C@@H]3OC[C@@H](O)[C@H](O)[C@H]3OC(=O)c3ccc(OC)cc3)[C@H]2OC(C)=O)C[C@H]2[C@@H]3CC=C4C[C@@H](O)CC[C@]4(C)[C@H]3CC[C@@]21C, the IC50 [1] is reported as 195 nM, the IC50 [2] is reported as 80 nM and the IC50 [3] is reported as over 50000 nM. The IC50 [4] was 210 nM, the IC50 [5] was 300 nM and the IC50 [6] was over 50000 nM. It also gave an IC50 [7] of 550 nM, an IC50 [8] of 58 nM and an IC50 [9] of 435 nM.

Molecule COc1ccc(C(=O)O[C@H]2[C@H](O[C@@H]3[C@@H](OC(C)=O)[C@H](O[C@H]4C[C@H]5[C@@H]6CC=C7C[C@@H](O)CC[C@]7(C)[C@H]6CC[C@]5(C)[C@@]4(O)[C@H](C)C(=O)CCC(C)C)OC[C@@H]3O)OC[C@@H](O)[C@@H]2O)cc1 has an IC50 [1] of 2.4 nM, an IC50 [2] of 0.2 nM and an IC50 [3] of 8200 nM. It also gave an IC50 [4] of 70 nM, an IC50 [5] of 1000 nM and an IC50 [6] of 8400 nM. It also gave an IC50 [7] of 27 nM, an IC50 [8] of 0.3 nM and an IC50 [9] of 3.4 nM.

With CCCCCCCCCCCCCC(=O)OC[C@@H](C)[C@@]1(O)[C@@H](O[C@@H]2OC[C@H](O)[C@H](O[C@@H]3OC[C@@H](O)[C@H](O)[C@H]3OC(=O)c3ccc(OC)cc3)[C@H]2OC(C)=O)C[C@H]2[C@@H]3CC=C4C[C@@H](O)CC[C@]4(C)[C@H]3CC[C@@]21C the IC50 [1] was 48 nM, the IC50 [2] was 83 nM and the IC50 [3] was 2700 nM. It also gave an IC50 [4] of 28 nM, an IC50 [5] of 30 nM and an IC50 [6] of 2800 nM. The IC50 [7] was 720 nM, the IC50 [8] was 16 nM and the IC50 [9] was 67 nM.
